Laboratory results published in patent publication US20140105959A1, “METHOD AND DEVICE FOR REDUCING DERMAL FILLER ADVERSE EVENTS” (ALLERGAN, INC., priority 2012, published 2014).

What was measured:
hairless rat skin [1] = test: bruising after dermal filler administration at patch-treated versus untreated rat skin; type: in vivo; details: cotton fabric patch, phenylephrine 400 ppm, 15 minutes, then dermal filler, compared with adjacent untreated skin
hairless rat skin [2] = test: vasoconstriction in hairless rat skin after topical phenylephrine patch; type: in vivo
Source text: In certain embodiments, mechanisms are provided that are effective to actively enhance transport of vasoactive drugs across the skin (mechanisms will be referred to as “enhancers” in the rest of the invention). For example, in one embodiment of the invention, the method includes the step of treating a skin site selected for dermal filler administration with a mechanism effective to enhance drug delivery across the skin prior to treating the skin site with the device or compound containing the active agent effective to reduce or ameliorate the adverse event. For example, the mechanism, hereinafter sometimes referred to as “mechanical enhancer” may comprise a mechanical device capable of gently stripping of the superficial skin layers from the epidermis. For example, the mechanism may be an adhesive tape or abrasive surface. It has been discovered that use of such mechanisms increase phenylephrine diffusion through the skin and result in significant reduction in skin's vasoconstriction time (e.g. 5 minutes) by phenylephrine using the same patch device. In certain embodiments, it might be useful to apply the mechanism, enhancement device, after filler administration, preferably in devices where the vasoactive drug may interfere with safety and/or potency of fillers. […]

nasolabial folds = test: visible bruising after Juvederm XC injection into patch-treated nasolabial folds of a patient; type: in vivo, human; details: microneedle roller pretreatment, cotton-based patch about 300 ppm phenylephrine for about 7 minutes, then 0.6 cc Juvederm XC per nasolabial fold
Method: Their physician applies, along both nasolabial folds, a tool having a rolling head with numerous microneedles to penetrate the dermis with numerous punctures about one millimeter in depth. They then apply a phenylephrine-containing cotton-based patch, formulated to about 300 ppm phenylephrine, in accordance with the invention, on the skin along the left nasolabial fold, in a way that covers the entire injection site. The patch is left in place for about 7 minutes. The physician removes the patch and then carefully injects 0.6 cc of a HA-based dermal filler, specifically, Juvederm® XC, (available from Allergan, Inc., Irvine, Calif.) into the phenylephrine-treated dermis just beneath the fold line, using a 27 gauge needle. The treatment procedure is repeated for the right nasolabial fold, for example, using another identical patch and another 0.6 cc Juvederm® XC.

CNC[C@H](O)c1cccc(O)c1 [phenylephrine]
bruising at the vasoconstricted skin site, particularly along the line of injection (hairless rat skin [1]): lower than at the untreated skin site
vasoconstriction in skin regions directly underneath the patch (hairless rat skin [2]; cotton fabric patch, phenylephrine 400 ppm, removed after 15 minutes, hairless rat): significant vasoconstriction
time to release, diffuse and cause significant vasoconstriction (hairless rat skin [2]; phenylephrine formulated at 100 ppm in a topically placed cotton gauze, hairless rat skin): about 10 minutes
skin's vasoconstriction time (hairless rat skin [2]; same patch device, after mechanical enhancer (adhesive tape or abrasive surface stripping superficial skin layers)): 5 min
bruising one week after the procedure (nasolabial folds; one week): no bruising, nor red marks
visible bruising three days after the treatment procedure (nasolabial folds; three days): does not notice any visible bruising
